According to US10966999B2, “3′3′ cyclic dinucleotides with phosphonate bond activating the sting adaptor protein” (INSTITUTE OF ORGANIC CHEMISTRY AND BIOCHEMISTRY ASCR, V.V.I., priority 2017, dated 2021):

Key:
WT STING = molecular target: T1, WT STING (Homo sapiens, UniProt Q86WV6, H232R); experiment: Differential Scanning Fluorimetry (DSF) with WT STING; assay type: binding; conditions: thermal shift vs STING apoprotein; 150 μM CDN; 0.1 mg/ml protein; SYPRO Orange
T1 construct: encoded truncated human WT STING or AQ STING (amino acid residues 140-343) with N-terminal 8×His and SUMO tag; 8xHis-SUMO (N, cleaved yes); made in house; host or cells: E. coli Rosetta-gami B (DE3)
T1 sequence (Q86WV6 140-343 H232R): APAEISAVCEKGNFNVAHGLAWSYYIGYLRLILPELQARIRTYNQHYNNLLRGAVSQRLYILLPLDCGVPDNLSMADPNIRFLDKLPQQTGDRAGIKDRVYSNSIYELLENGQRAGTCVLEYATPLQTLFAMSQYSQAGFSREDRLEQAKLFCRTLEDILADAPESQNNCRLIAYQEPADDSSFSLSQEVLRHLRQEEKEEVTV
Description: (§1) WT STING and AQ STING Proteins
(§2) Purified PCR products were cleaved with restriction enzymes BamHI (cat. #R0136S, NEB, Ipswich, USA) and NotI (cat. #R0189S, NEB, Ipswich, USA) and cloned into the pSUMO vector linearized with the identical enzymes.
(§3) DNase I (cat. #D5025, Sigma Aldrich, Czech Republic) and RNase A (cat. #R6513, Sigma Aldrich, Czech Republic) were added (final concentration 50 μg/ml) together with MgCl2 (final concentration 5 mmol·l^−1) to the homogenate and bacteria were lysed using French Press G-M™ High-Pressure Cell Press Homogenizer (1500 psi, 3 cycles). […] The resin was poured into a chromatography column, washed with 50 ml buffer A (50 mmol·l^−1 TrisCl (pH 8.0), 800 mmol·l^−1 NaCl, 3 mmol·l^−1 3-mercaptol; 10% glycerol; 20 mmol·l^−1 imidazole) and 8-His-SUMO tagged STING proteins were eluted with 15 ml buffer A containing 300 mmol·l^−1 imidazole. […] Proteins were concentrated with Amicon® Ultra-15 10 K device (cat. #UFC901008, Merck Millipore, Billerica, USA) and flash frozen in liquid N2.
(§4) Differential Scanning Fluorimetry (DSF) with WT STING and AQ STING
(§5) 20 μL solutions of the reaction mixtures were pipetted in triplicates into 96 well optical reaction plates and thermal denaturation of samples were performed on real time PCR cycler (LightCycler R 480 Instrument II—Roche, Basel, Switzerland). The first derivative of the thermal denaturation curves was performed to calculate denaturing temperatures of STING-CDN complexes and STING apoproteins. The thermal shift for each CDN was calculated by subtracting the average denaturing temperature of STING apoprotein from the average denaturing temperature of STING CDN complex.

AQ STING (G230A-R293Q) = molecular target: T2, AQ STING (G230A-R293Q) (Homo sapiens, UniProt Q86WV6, G230A/H232R/R293Q); experiment: Differential Scanning Fluorimetry (DSF) with AQ STING; assay type: binding; conditions: thermal shift vs STING apoprotein; 150 μM CDN; 0.1 mg/ml protein; SYPRO Orange
T2 construct: encoded truncated human WT STING or AQ STING (amino acid residues 140-343) with N-terminal 8×His and SUMO tag; 8xHis-SUMO (N, cleaved yes); made in house; host or cells: E. coli Rosetta-gami B (DE3)
T2 sequence (Q86WV6 140-343 G230A/H232R/R293Q): as the sequence (Q86WV6 140-343 H232R) above, with G91A, R154Q counted along it
Description: as §1, §2, §3, §4, §5

[1] = molecular target: T3, human wild type STING (WT STING) (Homo sapiens, UniProt Q86WV6, H232R); experiment: Digitonin assay using 293T wtSTING-FL reporter cells; assay type: cell-based; conditions: 293T wtSTING-FL cells; ISRE firefly luciferase reporter; 30 min in Digitonin buffer, then 5 hours; 8-point dose-response curve
T3 construct: host or cells: 293T (ATCC CRL-3216), stably transfected, with a 4xISRE firefly luciferase reporter
T3 sequence (Q86WV6 whole entry H232R): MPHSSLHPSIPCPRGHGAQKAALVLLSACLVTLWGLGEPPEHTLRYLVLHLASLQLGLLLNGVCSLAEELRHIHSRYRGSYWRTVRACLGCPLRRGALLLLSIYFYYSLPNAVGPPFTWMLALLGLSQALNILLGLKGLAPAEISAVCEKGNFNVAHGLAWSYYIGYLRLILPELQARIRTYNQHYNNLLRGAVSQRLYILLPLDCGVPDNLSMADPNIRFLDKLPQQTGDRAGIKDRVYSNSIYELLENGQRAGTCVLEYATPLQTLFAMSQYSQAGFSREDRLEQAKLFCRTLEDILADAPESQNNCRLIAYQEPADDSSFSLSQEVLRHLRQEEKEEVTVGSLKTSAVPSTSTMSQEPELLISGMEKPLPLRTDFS
From the text: ISRE Reporter Plasmid (pGL64.27-4×ISRE)
Two complementary oligonucleotides of the sequence […] […] […] […] […] The oligonucleotides were mixed in equal molar amounts, hybridized, and cleaved by restriction endonucleases HindIII (cat. #. R0104S, NEB, Ipswich, USA) and BglII (cat. #R0144S, NEB, Ipswich, USA). Ultimately, they were ligated into plasmid pGL4.27 (cat. #E6651, Promega, Madison, USA) linearized with the same enzymes. As result the sequence with four ISRE sites was placed upstream of the minimum promoter of firefly luciferase reporter gene.
After 5 minutes incubation at room temperature (RT), 250 μL of the mixture was added dropwise to the cells in one well. Cells were incubated 36 hours at 37° C. with 5% CO2, and then detached with 0.05% Trypsin and 0.22 g/L EDTA (both cat. #L0941, Biowest, Riverside, USA).
Transfected cells were seeded onto poly-D-lysine coated six well plates at density 50,000 cells per 1 cm^2 in DMEM medium with high glucose containing 10% heat inactivated FBS, 30 μg/mL blasticidin (cat. #ant-bl-05, InvivoGen, San Diego, USA), 0.06 mg/ml Penicillin G and 0.1 mg/ml Streptomycin Sulfate (both cat. #. L0018, Biowest, Riverside, USA). The medium was replenished every 3-4 days until visible colonies of cells resistant to blasticidin were formed.
Blasticidin resistant cells stably expressing WT STING were further transfected with pGL64.27-4×ISRE plasmid following the same procedure as described above. […] Homogeneous culture of stably double transfected cells was prepared by limiting dilution of cells in 96 well plates and wells with cells were selected that originated from a single cell.
The medium was removed next day and three fold serial dilutions of compounds in Digitonin buffer containing 50 mmol·l^−1 HEPES (cat. #H3375, Sigma Aldrich, Czech Republic) pH 7.0, 100 mmol·l^−1 KCl, 3 mmol·l^−1 MgCl2, 0.1 mmol·l^−1 DTT (cat. #D0632, Sigma Aldrich, Czech Republic), 85 mmol·l^−1 Sucrose (cat. #S7903, Sigma Aldrich, Czech Republic), 0.2% BSA (cat. #A2153, Sigma Aldrich, Czech Republic), 1 mmol·l^−1 ATP (cat. #A1852, Sigma Aldrich, Czech Republic), 0.1 mmol·l^−1 GTP (cat. #G8877, Sigma Aldrich, Czech Republic), and 10 μg/mL Digitonin A (cat. #D141, Sigma Aldrich, Czech Republic) were added to the cells. The buffer was removed after 30 minutes incubation at 37° C. with 5% CO2, the cells were washed once with 100 μl of cultivation medium, and 100 μl of medium was added to each well. The plates with cells were incubated for 5 hours at 37° C. with 5% CO2, 50 μl of the medium was removed and 30 μl of ONE-Glo™ Luciferase Assay System reagent (cat. #E6120, Promega, Madison, USA) was added to each well. Luminescence was read on Synergy H1 (Biotek, Winooski, USA).

| SMILES | ΔTm at 150 µM (WT STING) [°C] | ΔTm at 150 µM (AQ STING (G230A-R293Q)) [°C] | EC50 [1] [nM] | DSF ΔTm WT STING (WT STING) [°C] | DSF ΔTm AQ STING (AQ STING (G230A-R293Q)) [°C] |
| --- | --- | --- | --- | --- | --- |
| Nc1nc2c(ncn2[C@@H]2O[C@@H]3COP(=O)(O)O[C@H]4[C@@H](O)[C@H](n5cnc6c(=O)[nH]c(N)nc65)O[C@@H]4COP(=O)(O)O[C@H]3[C@H]2O)c(=O)[nH]1 [3′3′c-di-GMP, 3′3′-c-di-GMP, reference compound] |  |  | 5800 | 2.6 | 7.7 |
| Nc1ncnc2c1ncn2[C@@H]1O[C@@H]2OCP(=O)(O)OC3C(O)[C@H](n4cnc5c(N)ncnc54)O[C@@H]3OCP(=O)(O)OC2C1O (stereo partly drawn) [Compound 31, (2R,3R,3aS,7aR,9R,10R,10aS,14aR)-2,9-bis(6-amino-9H-purin-9-yl)-3,5,10,12-tetrahydroxydecahydrodifuro[2,3-e:2′,3′-k][1,4,7,10]tetraoxa[2,8]diphosphacyclododecine 5,12-dioxide] | 0.1 | 2.5 | 19200 |  |  |
| Nc1ncnc2c1ncn2[C@@H]1O[C@@H]2COCP(=O)(O)OC3C(F)[C@H](n4cnc5c(N)ncnc54)O[C@@H]3COP(=O)(O)OC2C1O (stereo partly drawn) [Compound 34, (2R,3R,3aS,7aR,9R,10R,10aR,15aR)-2,9-bis(6-amino-9H-purin-9-yl)-10-fluoro-3,5,12-trihydroxydecahydro-2H-difuro[2,3-e:2′,3′-1][1,3,7,10]tetraoxa[2,8]diphosphacyclotridecine 5,12-dioxide] | 0.2 | 4.3 | 19600 |  |  |
| Nc1nc2c(ncn2[C@@H]2O[C@@H]3OCP(=O)(O)OC4C(O)[C@H](n5cnc6c(=O)[nH]c(N)nc65)O[C@@H]4OCP(=O)(O)OC3C2O)c(=O)[nH]1 (stereo partly drawn) [Compound 36] | 0.6 | 5.6 | 8100 |  |  |
| Nc1nc(Cl)c2ncn([C@@H]3O[C@@H]4COP(=O)(O)OC5C(O)[C@H](n6cnc7c(N)ncnc76)O[C@@H]5OCP(=O)(O)OC4C3O)c2n1 (stereo partly drawn) [Compound 40] | 0.4 | 2.1 | 7500 |  |  |
| COc1nc(N)nc2c1ncn2[C@@H]1O[C@@H]2COP(=O)(O)OC3C(O)[C@H](n4cnc5c(N)ncnc54)O[C@@H]3OCP(=O)(O)OC2C1O (stereo partly drawn) [Compound 41] | 0.1 | 1.6 | 17600 |  |  |
| CSc1nc(N)nc2c1ncn2[C@@H]1O[C@@H]2COP(=O)(O)OC3C(O)[C@H](n4cnc5c(N)ncnc54)O[C@@H]3OCP(=O)(O)OC2C1O (stereo partly drawn) [Compound 45] | 0 | 1.1 | 20800 |  |  |
| Nc1ncnc2c1ncn2[C@@H]1O[C@@H]2COP(=O)(O)OC3C(O)[C@H](n4cnc5c(N)ncnc54)O[C@@H]3OCP(=O)(O)OC2C1N (stereo partly drawn) [Compound 47] | 0.1 | 2.1 | 20800 |  |  |
| Nc1ncnc2c1ccn2[C@@H]1O[C@@H]2COP(=O)(O)OC3C(O)[C@H](n4cnc5c(N)ncnc54)O[C@@H]3OCP(=O)(O)OC2C1O (stereo partly drawn) [Compound 50] | 0.4 | 2 | 8600 |  |  |

The next compounds have a lower EC50 [1] than those just listed; values first:

| ΔTm at 150 µM (WT STING) [°C] | ΔTm at 150 µM (AQ STING (G230A-R293Q)) [°C] | EC50 [1] [nM] | DSF ΔTm WT STING (WT STING) [°C] | DSF ΔTm AQ STING (AQ STING (G230A-R293Q)) [°C] | SMILES |
| --- | --- | --- | --- | --- | --- |
| 0.8 | 6.4 | 1200 |  |  | Nc1ncnc2c1ncn2[C@@H]1O[C@@H]2OCP(=O)(O)OC3C(O)[C@H](n4cnc5c(N)ncnc54)O[C@@H]3COP(=O)(O)OC2C1O (single isomer, unassigned) [Compound 32] |
|  |  | 30 | 11.5 | 19.4 | Nc1nc2c(ncn2[C@@H]2O[C@@H]3COP(=O)(O)O[C@@H]4[C@H](O)[C@@H](COP(=O)(O)O[C@@H]2[C@@H]3O)O[C@H]4n2cnc3c(N)ncnc32)c(=O)[nH]1 [2′2′-cGAMP, reference compound] |
|  |  | 300 | 2.6 | 9.3 | Nc1ncnc2c1ncn2[C@@H]1O[C@@H]2COP(=O)(O)O[C@H]3[C@@H](O)[C@H](n4cnc5c(N)ncnc54)O[C@@H]3COP(=O)(O)O[C@H]2[C@H]1O [3′3′c-di-AMP, 3′3′-c-di-AMP, reference compound] |
| 2.3 | 9 | 2400 |  |  | Nc1nc2c(ncn2[C@@H]2O[C@@H]3COCP(=O)(O)OC4C(F)[C@H](n5cnc6c(N)ncnc65)O[C@@H]4COP(=O)(O)OC3C2O)c(=O)[nH]1 (stereo partly drawn) [Compound 35, 2-amino-9-((2R,3R,3aS,7aR,9R,10R,10aR,15aR)-9-(6-amino-9H-purin-9-yl)-10-fluoro-3,5,12-trihydroxy-5,12-dioxidodecahydro-2H-difuro[2,3-e:2′,3′-l][1,3,7,10]tetraoxa[2,8]diphosphacyclotridecin-2-yl)-1,9-dihydro-6H-purin-6-one] |
| 7.6 | 15.9 | 5 |  |  | Nc1nc2c(ncn2[C@@H]2O[C@@H]3OCP(=O)(O)OC4C(O)[C@H](n5cnc6c(N)ncnc65)O[C@@H]4COP(=O)(O)OC3C2O)c(=O)[nH]1 (stereo partly drawn) [Compound 37] |
| 1.9 | 9.5 | 200 |  |  | Nc1nc2c(ncn2[C@@H]2O[C@@H]3OCP(=O)(O)OC4C(O)[C@H](n5cnc6c(N)ncnc65)O[C@@H]4OCP(=O)(O)OC3C2O)c(=O)[nH]1 (stereo partly drawn) [Compound 38] |
| 2.9 | 8 | 120 |  |  | CNc1ncnc2c1ncn2[C@@H]1O[C@@H]2COP(=O)(O)OC3C(O)[C@H](n4cnc5c(=O)[nH]c(N)nc54)O[C@@H]3OCP(=O)(O)OC2C1O (stereo partly drawn) [Compound 39] |
| 0.7 | 6.6 | 600 |  |  | Nc1ncc2ncn([C@@H]3O[C@@H]4COP(=O)(O)OC5C(O)[C@H](n6cnc7c(N)ncnc76)O[C@@H]5OCP(=O)(O)OC4C3O)c2n1 (stereo partly drawn) [Compound 42] |
| 0.6 | 3.3 | 4700 |  |  | Nc1nc2c(ccn2[C@@H]2O[C@@H]3COP(=O)(O)OC4C(O)[C@H](n5cnc6c(N)ncnc65)O[C@@H]4OCP(=O)(O)OC3C2O)c(=O)[nH]1 (stereo partly drawn) [Compound 43] |
| 4.5 | 11.2 | 90 |  |  | Nc1nc2c(ncn2[C@@H]2O[C@@H]3COP(=O)(O)OC4C(O)[C@H](n5cnc6c(N)ncnc65)O[C@@H]4OCP(=O)(O)OC3C2O)c(=O)[nH]1 (stereo partly drawn) [Compound 44] |
| 0.6 | 4.4 | 1500 |  |  | CNc1ncnc2c1ncn2[C@@H]1O[C@@H]2COP(=O)(O)OC3C(O)[C@H](n4cnc5c(N)ncnc54)O[C@@H]3OCP(=O)(O)OC2C1O (stereo partly drawn) [Compound 48] |
| 0.5 | 4.2 | 1500 |  |  | Nc1ncnc2c1ncn2[C@@H]1O[C@@H]2OCP(=O)(O)OC3C(O)[C@H](n4cnc5c(N)ncnc54)O[C@@H]3COP(=O)(S)OC2C1O (stereo partly drawn) [Compound 49] |
